Where only a bound is given, the exact number is not on record here.

The term melting point denotes the temperature of the solid-liquid transition. For the compound `O=C(O)c1ccc2cc(-c3ccc(CC(O)CO)c(C45CC6CC(CC(C6)C4)C5)c3)ccc2c1` (centres undefined), the melting point was 258 °C. Next, `O=c1[nH]c2ccc3c(c2o1)OC(CN1CC=C(c2c[nH]c4ccccc24)CC1)CO3` (centres undefined): 202 °C; `NC(=O)CON=C(C(=O)O)c1ccco1`: 143 to 145 °C. Compound `CC(C)(C)n1ncc(SCc2ccc(Oc3ccc(C(F)(F)F)cc3)cc2)c(Cl)c1=O` returned a melting point of 152 to 156 °C. The compound `Cn1c(=O)c(=O)n(Cc2ccc(Cl)cc2Cl)c2cc(C(=O)O)ccc21` gave a melting point of 320 to 322 °C. With `Cc1ncn(-c2ccccc2C#N)n1` the figure was 109 to 110 °C. Next, `CC(=O)c1cc(CO)c(OCCCCC#N)cc1OCCCCC#N`: 98 to 99 °C. In the case of `CCSc1cc(C)nc(SCC)c1NC(=O)CCCSc1nc2cccc(C(F)(F)F)c2o1`, the melting point lay in the range of 148 to 150 °C.

`CCCCNS(=O)(=O)c1ccc(N2CCC(NC[C@H](O)c3ccc(O)c(NS(C)(=O)=O)c3)CC2)cc1` gave a melting point of 71 to 75 °C. Next, `Cc1oc(-c2ccccc2)nc1CCOc1ccc(CC(F)(C(=O)O)c2ccccc2)cc1` (centres undefined): 163 to 165 °C; `CN1C(=O)N(C[C@@H](CCS(=O)(=O)c2ccc(Oc3ccc(F)cc3)cc2)N(O)C=O)C(=O)C1(C)C`: 105 °C; `O=C(Nc1c([N+](=O)[O-])cnn1-c1c(Cl)cc(C(F)(F)F)c(Cl)c1Cl)C(F)F`: 146 to 151 °C. With `CC(C)(C)OC(=O)n1cccc1-c1ccc2c(c1)C1(CCCCC1)C(=O)N2` the figure was 177 °C; with `CC1(C)C2CC[C@]1(C)C(=O)C(C(=O)Nc1cccc(C(F)(F)F)c1)C2=O` (some centres undefined), 60 to 62 °C. With `COc1ccc2cc([C@H](C)C(=O)OC[C@](C)(O)CO)ccc2c1` the figure was 65 to 66 °C. With `CN=C(NC#N)Nc1ccc2c(c1)CCC1CC(=O)NN=C21` (centres undefined), the melting point came to 289 °C. With `c1ccc(-c2ccc(-n3cccc3)cc2)cc1` the figure was 190 to 192 °C; with `C#CC(C)OS(=O)(=O)c1ccc(C)cc1` (centres undefined), 49 to 51 °C; with `COc1ccc2nc(Cl)c(NN)nc2c1`, less than 250 °C. Next, `CCc1ccc(CC(C)(C)NCC(O)c2cc(OCc3ccccc3)cc3c2OCC(=O)N3)cc1` (centres undefined): 210 to 214 °C; `CC1Cc2cc(S(N)(=O)=O)cc(C(=O)NC3CCN(Cc4ccccc4)CC3)c2O1` (centres undefined): 226 to 228 °C; `O=C1COCC(c2ccccc2)N1C(=O)Oc1ccc([N+](=O)[O-])cc1` (centres undefined): 105 to 109 °C. With `CC(C)(CNC(=O)C(C)(C)CCC(=O)O)SN=O` the figure was 100 to 101 °C. Compound `CNC1(CC2CCCCC2)C(=O)N(S(=O)(=O)c2ccc([N+](=O)[O-])cc2OC)c2ccc(Cl)cc21` (centres undefined) returned a melting point of 207 °C. With `CCCCCCCCCCC1CN(O)C(=O)N1C` (centres undefined) the figure was 47 to 48 °C; with `Clc1ccc(C2C=Cc3cc(Br)cnc3O2)cc1Cl` (centres undefined), 100 to 101 °C; with `COC(=O)C1CCCN(C(=O)OC(C)(C)C)C1` (centres undefined), 47.5 to 48.5 °C. Turning to `CCc1ncnc2cc(O)c(OC)cc12`, the melting point is 210 to 215 °C. Next, `CN1CCN(c2ccc(Nc3ncc4c(n3)S/C(=C/c3ccc([N+](=O)[O-])cc3)C(=O)N4)cc2)CC1`: 276 to 279 °C; `COc1cccc(C(=O)c2[nH]c3cc(Cl)ccc3c2NC(C)=O)c1`: 161 to 162 °C. Next, `CCOC(=O)c1cnn2c1c(NC1CC1)nc1ccccc12`: 167 to 169 °C; `O=C(O)c1ccc2cc(OCCC(c3ccccc3)(c3ccccc3)c3ccccc3)ccc2c1`: 243 to 244 °C. Compound `O=C(O)c1cc(Cl)nn2nnnc12` had a melting point of 225 °C. With `C[C@]12CCC(=O)N[C@@H]1CCc1cc(Sc3ccc4ccccc4n3)ccc12` the figure was 220 to 222 °C. With `CC1(C)COC(c2cc(F)c(F)cc2F)=N1` the figure was 53 to 54 °C.

In turn, `CC(C)c1ccc([N+](=O)[O-])c(C(C)C)c1NC(=O)CN1CCN(CCSc2nc3ccccc3o2)CC1` displayed a melting point of 143 to 145 °C. With `Cc1ccc(C2CCN(C(=O)Nc3ccc4nc(CN5C(C)(C)CCCC5(C)C)ccc4c3)CC2)cc1` the figure was 200 to 202 °C.

On to `COc1c(-c2ccc3cc(NS(C)(=O)=O)ccc3c2)cc(N2CCCC2=O)cc1C(C)(C)C`, for which the melting point lay within 229 to 230 °C. With `COc1cc(C(=O)O)c(-n2c3ccccc3c3ccccc32)cc1C(=O)O` the figure was 298 °C; with `Oc1ccc(C(O)(c2ccccc2)C(CCCCl)c2ccccc2)cc1` (centres undefined), 75 to 78 °C. Next, `COC(=O)NNC(=O)c1cc(OC)c(OC)c(OC)c1`: 145 °C; `CC(=N)Nc1ccc2nc(-c3ccccc3)ncc2c1`: 162 to 164 °C. Next, `CC(C)C[C@H](NC(=O)OC(C)(C)C)C(=O)N[C@H](C(=O)NN)[C@@H](C)O`: 146 to 148 °C; `COc1ccc(CNc2n[nH]c3ncnc(Nc4cccc(Cl)c4)c23)cc1O`: 225 to 227 °C; `COc1cc(OC)cc(-c2nc[nH]c2-c2ccc(OC)c(O)c2N)c1`: 148 °C.

With `CSc1ncc(C#N)c(NC(C)C)n1`, the melting point is 121 to 122 °C. With `O=C(NC(=O)c1c(Cl)cccc1Cl)Nc1cc(Br)c(Br)cc1C(F)(F)F` the figure was 204 °C.

`CNc1nc(C(=O)N(C)Cc2cc(C(F)(F)F)cc(C(F)(F)F)c2)c(-c2ccccc2)c2ccccc12` registered a melting point of 213 to 214 °C.

Take `C=CC1(O)CN2CCC1CC2` (centres undefined): the melting point was in the range of 76 to 80 °C. Next, `CC(C)c1nc(-c2ccccc2)nc(-c2ccc(F)cc2)c1C=O`: 127 to 129 °C; `ClC(=NNc1c(Cl)cc(Cl)cc1Cl)c1ccccc1`: 93 to 94.5 °C; `Nc1ccc(Cl)cc1NCC1CCCCC1`: 62 °C. With `CCOC(=O)C=Cc1ccc2c(c1)c(-c1cc3cccnc3n1S(=O)(=O)c1ccc(C)cc1)cn2C` the figure was 159 to 162 °C; with `CC/C(=C\C=C\C(=O)Oc1ccc([N+](=O)[O-])cc1)c1ccc(OC)cc1`, 112 to 114 °C; with `Cc1ncc(-c2ccccc2)s1`, 72 to 74 °C. As to `CN(C(=O)COc1cc(-c2ccccc2)nc2ccccc12)C(C)(C)C`, the melting point worked out at 90 °C.

With `NC(=O)CC(C(N)=O)n1cccc1` (centres undefined), the melting point was 158 to 165 °C. With `CC(C)(O)Cc1ccc(N)cc1` the figure was 107 to 108 °C. With `CNC(=O)C1=CC(CF)(CF)Oc2ccc(Cl)cc21` the figure was 175 to 176 °C; with `C=C(C)C(=O)OCCCOc1ccc(OC(=O)C(=C)C)cc1`, 58 °C. The compound `O=C(/C=C/c1ccc(Br)cc1)/C=C/c1ccc(Br)cc1` had a melting point of 211 to 213 °C. With `Cc1ncn(-c2cc(F)ccc2CNC(=O)c2nc3n(c(=O)c2OCc2ccccc2)CCN3c2ccccc2)n1` the figure was 147 to 148 °C; with `CC(=O)Nc1c(C(=O)c2ccoc2)[nH]c2cc(Cl)ccc12`, 217 to 219 °C; with `Cc1cc2ccccc2n1-c1ccc(OCc2ccccc2)c(F)c1`, 70 to 71 °C.

These data come from a melting point compilation (Tetko et al.; mined from patent text by program, amines drawn as free bases though some values may be those of a salt).
